Experiment: xn = mol fraction of the nth substance listed
Conditions: 101 kPa, Liquid; for speed of sound: Single path-length method

CCc1ccccc1 [ethylbenzene] + COC(C)(C)C
Conditions	mass density, 295.65 K [kg/m3]	mass density, 298.15 K [kg/m3]	mass density, 300.65 K [kg/m3]	mass density, 303.15 K [kg/m3]	speed of sound, 298.15 K [m/s]	speed of sound, 300.65 K [m/s]	speed of sound, 303.15 K [m/s]	speed of sound, 305.65 K [m/s]
x2 = 0	–	862.459	860.256	858.047	1318.4	1307.9	1297.5	1287.1
x2 = 0.046	–	857.231	855.014	852.795	1306	1295.8	1285.5	1275.2
x2 = 0.106	–	850.237	848.001	845.762	1291.4	1280.9	1270.4	1260
x2 = 0.212	–	837.881	835.613	833.338	1264.1	1253.5	1242.9	1232.4
x2 = 0.299	–	827.364	825.064	822.758	1241.2	1230.5	1219.8	1209.2
x2 = 0.402	–	814.636	812.278	809.93	1212.7	1201.5	1190.7	1180
x2 = 0.503	805.684	803.312	800.937	798.555	1187.3	1176.4	1165.5	1154.7
x2 = 0.6	791.851	789.435	787.011	784.554	1156.8	1145.7	1134.2	1123.2
x2 = 0.701	778.587	776.124	773.654	771.175	1127	1115.9	1104.8	1093.7
x2 = 0.822	762.221	759.695	757.162	754.617	1090.5	1079.2	1068	1056.8
x2 = 0.899	751.405	748.835	746.257	743.666	1066.3	1054.9	1043.6	1032.3
x2 = 0.948	744.369	741.772	739.163	736.543	1050.8	1039.4	1028	1016.6
